# Laboratory results as given in patent US20240254119A1 (THIRD HARMONIC BIO, INC., priority 2022, published 2024).
# What was measured:
# wtKIT = biological target: T1, wtKIT (Homo sapiens, UniProt P10721); assay: HTRF biochemical assay, wtKIT (phosphorylation of a peptide substrate); details: Table 4
# T1 construct: 1888289AM in the reaction mixtures
# Procedure, shortened: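 HTRF read-out of FAM-peptide (1 µM) phosphorylation after anti-phosphotyrosine antibody addition and EDTA quench. Reaction: 5.0 nM wtKIT, 400 µM ATP, 10 mM Mn2+, HEPES pH 7.5, 1% DMSO, 3 h, 25 °C; optional enzyme-compound preincubation; enzyme level set for 10-20% conversion.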
# PDGFRα = biological target: T2, PDGFRα (Homo sapiens, UniProt P16234); assay: HTRF biochemical assay, PDGFRα; details: Table 4, read-out: PDFGRα Biochemical IC50 avg
# T2 construct: purchased Millipore 14-467 (lot 26321_ACTI)
# Procedure, shortened: (§1)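 Kinase phosphorylation of a FAM-labelled peptide substrate, with ATP and Mn^2+ cofactors, run for 3 h at 25 °C, with optional enzyme–compound pre-incubation. Reactions were quenched with EDTA, and phosphopeptide was detected by anti-phosphotyrosine antibody HTRF.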
# CSF-1R = biological target: T3, CSF-1R (Homo sapiens, UniProt P07333); assay: HTRF biochemical assay, CSF-1R; details: Table 4
# T3 construct: purchased Invitrogen PV3249 (lot 662393N)
# Procedure, shortened: as §1
# CYP3A4 = assay: Hepatocyte CYP induction assay, CYP3A4 gene expression; format: in vitro ADME; details: human hepatocytes
# Protocol: Exemplary compounds were tested for ability to induce CYP3A4 and/or CYP1A2 in hepatocytes. Procedures and results are described below.
# Cryopreserved human hepatocytes were purchased from BioIVT (Baltimore, MD, USA), and they were stored in liquid nitrogen before using. The detailed information of hepatocytes is as follows:
# Fresh dosing solutions of test compounds, and Rifampicin were prepared in the incubation medium on the day of dosing.
# Cryopreserved hepatocytes were thawed and counted to determine yield, viability was measured. Hepatocytes at the concentrations of 0.7 million/mL were transferred to collagen-coated 96-well plates for attachment (0.1 mL viable cells/well). After allowing 4 to 5 hours for attachment of cells, the plating medium was replaced with Incubation Medium containing 2% (v/v) Matrigel™ (sandwich medium) and the hepatocytes were incubated until use.
# All incubations were conducted at 37° C., 5% CO2, and saturated humidity.
# The sandwich medium was removed and the hepatocytes were treated with incubation solutions containing test articles in vehicle (0.1% DMSO), or positive control for 24 hours after the cultures were established. The incubation solution was aspirated and replaced with incubation solution containing the same concentrations of test articles, vehicle, or positive controls for an additional 24 hours. The total treatment period was 48 hours. Triplicate were used for each concentration of test compound and positive control.
# After treatment period of 48 hours, the incubation solution was aspirated. Hepatocytes were washed once with pre-warmed HBSS and incubated with 140 μL of RLT (lysis buffer from Rneasy 96 Kit) supplemented with 1% β-mercaptoethanol. Plates were then stored at ≤−60° C. freezer until RNA analysis.
# Before RNA extraction, the frozen plate was thawed and cell lysates were transferred to 96-well plates. RNA isolation was performed using QIAcube HT System. RNA concentration was measured with NanoDrop ND-2000 spectrophotometer. The purity of RNA preparation was calculated by the ratio of the OD260 nm/OD280 nm and the acceptable range is between 1.8 and 2.2. Reverse transcription was performed to obtain cDNA. Quantification of the selective genes by real time quantitative Polymerase Chain Reaction (qPCR) was performed with TaqMan universal PCR Master Mix on the BIO-RAD CFX 384 Touch Real Time PCR System. The following setting were used: 50° C. for 2 minutes, 95° C. for 10 minutes, 40 cycles of 95° C. for 15 seconds and 60° C. for 1 minute. 18S rRNA was used as the internal standard.
# To account for variation in RNA yields and reverse transcription polymerase chain reaction (RT-PCR), the gene of interest in all samples was normalized to an internal control gene (18S ribosomal RNA) (Cttarget gene−Ct18S=ΔCt).
# The relative quantitation or change in mRNA level of selected genes induced by each test compound was expressed in relation to the vehicle control sample (Δctcompound−ΔCtvehicle=ΔΔCt). Fold changes in gene expression were determined by taking 2 to the power of this value (2^−ΔΔt).
# % of positive control [(fold change in treated sample)−1]/[(fold change in positive control)−1]×100
# T2 sequence (P16234 24-1089): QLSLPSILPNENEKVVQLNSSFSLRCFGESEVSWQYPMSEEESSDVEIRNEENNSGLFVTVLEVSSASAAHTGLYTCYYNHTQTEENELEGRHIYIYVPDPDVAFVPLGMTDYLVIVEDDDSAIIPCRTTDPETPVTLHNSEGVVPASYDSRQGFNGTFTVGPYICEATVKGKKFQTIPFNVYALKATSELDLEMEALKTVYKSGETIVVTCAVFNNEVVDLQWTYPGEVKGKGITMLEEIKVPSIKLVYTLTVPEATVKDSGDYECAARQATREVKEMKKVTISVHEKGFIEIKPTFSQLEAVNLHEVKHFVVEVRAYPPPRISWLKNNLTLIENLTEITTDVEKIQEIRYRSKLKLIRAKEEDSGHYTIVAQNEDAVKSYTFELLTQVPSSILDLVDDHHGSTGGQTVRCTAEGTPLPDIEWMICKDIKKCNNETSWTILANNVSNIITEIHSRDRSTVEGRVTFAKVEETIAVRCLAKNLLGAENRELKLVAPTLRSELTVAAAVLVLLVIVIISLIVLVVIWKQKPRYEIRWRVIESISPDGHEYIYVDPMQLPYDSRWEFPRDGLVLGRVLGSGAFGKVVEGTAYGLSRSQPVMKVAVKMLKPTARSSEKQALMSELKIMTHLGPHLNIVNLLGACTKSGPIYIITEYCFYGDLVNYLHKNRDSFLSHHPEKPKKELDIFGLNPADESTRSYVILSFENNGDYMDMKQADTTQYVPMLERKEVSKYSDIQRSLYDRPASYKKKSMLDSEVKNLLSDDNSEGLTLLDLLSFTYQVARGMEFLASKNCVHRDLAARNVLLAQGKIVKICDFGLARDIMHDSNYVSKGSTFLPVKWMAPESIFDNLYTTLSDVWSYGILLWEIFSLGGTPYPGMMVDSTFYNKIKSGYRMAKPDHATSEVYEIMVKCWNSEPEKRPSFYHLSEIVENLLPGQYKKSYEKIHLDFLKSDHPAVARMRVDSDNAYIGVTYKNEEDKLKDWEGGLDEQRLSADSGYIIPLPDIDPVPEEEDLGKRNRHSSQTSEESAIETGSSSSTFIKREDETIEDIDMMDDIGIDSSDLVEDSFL
# T3 sequence (P07333 20-972): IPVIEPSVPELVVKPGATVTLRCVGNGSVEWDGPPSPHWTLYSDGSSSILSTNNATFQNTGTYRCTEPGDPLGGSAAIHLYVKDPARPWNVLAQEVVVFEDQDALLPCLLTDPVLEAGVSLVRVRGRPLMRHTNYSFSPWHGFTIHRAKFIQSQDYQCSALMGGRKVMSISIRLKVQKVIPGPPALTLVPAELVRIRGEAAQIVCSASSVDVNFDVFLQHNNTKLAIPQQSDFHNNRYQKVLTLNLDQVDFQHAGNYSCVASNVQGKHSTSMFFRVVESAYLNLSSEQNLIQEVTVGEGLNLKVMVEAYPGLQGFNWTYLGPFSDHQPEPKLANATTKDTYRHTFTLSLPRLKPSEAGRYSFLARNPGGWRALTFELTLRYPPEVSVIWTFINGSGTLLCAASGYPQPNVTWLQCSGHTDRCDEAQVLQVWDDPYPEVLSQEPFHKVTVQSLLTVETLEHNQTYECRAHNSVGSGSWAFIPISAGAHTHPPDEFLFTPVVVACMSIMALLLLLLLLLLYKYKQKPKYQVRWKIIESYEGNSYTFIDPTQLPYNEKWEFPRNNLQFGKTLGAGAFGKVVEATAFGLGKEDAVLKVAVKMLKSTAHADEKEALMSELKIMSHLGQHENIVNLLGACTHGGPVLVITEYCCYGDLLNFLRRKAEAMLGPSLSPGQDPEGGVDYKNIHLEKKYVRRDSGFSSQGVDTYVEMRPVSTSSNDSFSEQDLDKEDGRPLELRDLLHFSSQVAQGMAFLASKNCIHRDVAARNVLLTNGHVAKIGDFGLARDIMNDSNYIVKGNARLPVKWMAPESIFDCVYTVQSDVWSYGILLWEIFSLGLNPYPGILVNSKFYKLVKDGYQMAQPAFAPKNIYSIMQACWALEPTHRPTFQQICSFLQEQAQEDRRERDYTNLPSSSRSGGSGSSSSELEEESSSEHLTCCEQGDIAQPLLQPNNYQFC
# T1 sequence (P10721 26-976): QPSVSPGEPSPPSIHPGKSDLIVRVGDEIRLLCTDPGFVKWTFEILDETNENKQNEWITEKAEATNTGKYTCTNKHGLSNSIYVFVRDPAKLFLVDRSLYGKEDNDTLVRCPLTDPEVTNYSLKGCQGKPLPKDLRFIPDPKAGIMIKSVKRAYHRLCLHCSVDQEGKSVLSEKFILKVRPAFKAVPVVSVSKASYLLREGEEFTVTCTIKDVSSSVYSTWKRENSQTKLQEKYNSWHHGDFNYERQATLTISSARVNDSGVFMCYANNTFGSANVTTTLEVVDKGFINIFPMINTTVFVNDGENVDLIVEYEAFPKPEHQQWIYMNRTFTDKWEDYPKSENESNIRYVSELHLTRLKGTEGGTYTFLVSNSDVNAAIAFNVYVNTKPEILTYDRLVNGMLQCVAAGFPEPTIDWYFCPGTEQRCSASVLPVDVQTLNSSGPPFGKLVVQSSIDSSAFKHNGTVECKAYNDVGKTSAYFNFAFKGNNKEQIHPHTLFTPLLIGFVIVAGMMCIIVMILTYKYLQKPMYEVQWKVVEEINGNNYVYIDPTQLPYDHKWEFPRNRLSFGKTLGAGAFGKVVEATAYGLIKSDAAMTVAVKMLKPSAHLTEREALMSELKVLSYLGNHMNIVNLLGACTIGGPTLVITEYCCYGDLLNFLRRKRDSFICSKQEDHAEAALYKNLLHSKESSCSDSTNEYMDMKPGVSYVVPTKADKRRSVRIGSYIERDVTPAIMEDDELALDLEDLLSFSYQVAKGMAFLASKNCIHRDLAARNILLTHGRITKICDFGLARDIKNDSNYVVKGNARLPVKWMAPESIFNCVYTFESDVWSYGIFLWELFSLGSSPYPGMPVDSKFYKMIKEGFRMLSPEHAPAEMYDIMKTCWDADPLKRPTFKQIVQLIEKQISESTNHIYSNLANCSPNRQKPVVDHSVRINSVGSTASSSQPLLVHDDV
SMILES,IC50 (wtKIT),IC50 (PDGFRα),IC50 (CSF-1R),CYP 3A4 induction mRNA: Mean fold at 10 μM (CYP3A4; donor four),other results
"Cc1ccc(-c2noc(C(C)NS(C)(=O)=O)n2)cc1NC(=O)c1cnc2ccccn12 (single isomer, unassigned) [Compound I-237]",50 to 500 nM,–,–,–,–
Cc1ccc(-c2noc(CC(O)C(F)F)n2)cc1NC(=O)c1cnc2ccccn12 (stereo not shown) [Compound I-122],≤ 50 nM,500 to 5000 nM,50 to 500 nM,–,–
COC(=O)N1CC(c2nc(-c3ccc(Cl)c(NC(=O)c4cnc5ccccn45)c3)no2)C1 [Compound I-339],≤ 50 nM,500 to 5000 nM,500 to 5000 nM,–,–
CCOc1ccn2c(C(=O)Nc3cc(-c4noc([C@H]5C[C@@H]5F)n4)ccc3C)cnc2c1 [Compound I-93],≤ 50 nM,50 to 500 nM,≤ 50 nM,–,–
Cc1ccc(-c2noc([C@H]3CC(F)(F)CN3)n2)cc1NC(=O)c1cnc2ccccn12 [Compound I-359],50 to 500 nM,–,–,+ (induction fold of less than or equal to 2-fold),–
"Cc1ccc(-c2noc(C(C)NS(C)(=O)=O)n2)cc1NC(=O)c1cnc2ccccn12 (single isomer, unassigned) [Compound I-238]",50 to 500 nM,–,–,–,–
Cc1ccc(-c2cnc(N3CC(F)(F)C3)o2)cc1NC(=O)c1cnc2ccccn12 [Compound I-213],50 to 500 nM,–,–,–,–
Cc1ccc(-c2noc(C3CC(OCCF)C3)n2)cc1NC(=O)c1cnc2ccccn12 (stereo not shown) [Compound I-369],≤ 50 nM,5000 to 30000 nM,5000 to 30000 nM,–,–
COC(=O)N1CC(c2nc(-c3ccc(C)c(NC(=O)c4cnc5cc(OC[C@H](C)O)ccn45)c3)no2)C1 [Compound I-262],≤ 50 nM,–,–,–,–
COCCS(=O)(=O)N1CC(c2nc(-c3ccc(C)c(NC(=O)c4cnc5ccccn45)c3)no2)C1 [Compound I-235],50 to 500 nM,–,–,–,–
Cc1ccc(-c2noc(CC(C)O)n2)cc1NC(=O)c1cnc2ccccn12 (racemic) [Compound I-363],–,–,–,+ (induction fold of less than or equal to 2-fold),CYP 3A4 induction mRNA: Mean fold at 10 μM (CYP3A4; donor five): + (induction fold of less than or equal to 2-fold); CYP 3A4 induction mRNA: Mean fold at 10 μM (CYP3A4; donor three): + (induction fold of less than or equal to 2-fold)
Cc1nc(-c2ccc(C)c(NC(=O)c3cnc4ccccn34)c2)no1 [Compound I-360],≤ 50 nM,–,–,–,–
CCCS(=O)(=O)N1CC(c2nc(-c3ccc(Cl)c(NC(=O)c4cnc5ccccn45)c3)no2)C1 [Compound I-220],≤ 50 nM,–,–,+++ (induction fold of greater than 3-fold to less than or equal to 10-fold),–
Cc1nc(-c2ccc(C)c(NC(=O)c3cnc4ccc(N(C)C)cn34)c2)no1 [Compound I-205],≤ 50 nM,–,–,–,–
Cc1ccc(-c2noc(C3CCN3)n2)cc1NC(=O)c1cnc2ccccn12 (racemic) [Compound I-394],50 to 500 nM,–,–,+ (induction fold of less than or equal to 2-fold),CYP 3A4 induction mRNA: Mean fold at 10 μM (CYP3A4; donor five): + (induction fold of less than or equal to 2-fold); CYP 3A4 induction mRNA: Mean fold at 10 μM (CYP3A4; donor three): + (induction fold of less than or equal to 2-fold)
COC(=O)N1CC(c2nc(-c3ccc(C)c(NC(=O)c4cnc5cc(OC[C@@H](C)O)ccn45)c3)no2)C1 [Compound I-263],≤ 50 nM,–,–,–,–
COc1ccc2ncc(C(=O)Nc3cc(-c4noc(C[C@@H](C)O)n4)ccc3C)n2c1 [Compound I-119],≤ 50 nM,500 to 5000 nM,500 to 5000 nM,+ (induction fold of less than or equal to 2-fold),–

SMILES,IC50 (wtKIT),IC50 (PDGFRα),IC50 (CSF-1R),CYP 3A4 induction mRNA: Mean fold at 10 μM (CYP3A4; donor four),other results
"COC(=O)N1CC(c2nc(-c3ccc(C)c(NC(=O)c4cnc5cc(O[C@@H](C)CO)ccn45)c3)no2)C1 (single isomer, unassigned) [Compound I-217]",≤ 50 nM,–,–,–,–
COc1ccn2c(C(=O)Nc3cc(-c4noc(C5CC(F)(F)C5)n4)ccc3C)cnc2c1 [Compound I-96],≤ 50 nM,50 to 500 nM,≤ 50 nM,–,–
Cc1ccc(-c2noc(CCO)n2)cc1NC(=O)c1cnc2ccccn12 [Compound I-306],50 to 500 nM,500 to 5000 nM,500 to 5000 nM,–,–
Cc1ccc(-c2noc(CC(=O)O)n2)cc1NC(=O)c1cnc2ccccn12 [Compound I-335],50 to 500 nM,–,–,–,–
COC(=O)N1CC(c2nc(-c3ccc(C(F)F)c(NC(=O)c4cnc5ccccn45)c3)no2)C1 [Compound I-225],≤ 50 nM,5000 to 30000 nM,500 to 5000 nM,+++ (induction fold of greater than 3-fold to less than or equal to 10-fold),–
Cc1ccc(-c2noc(C3COC3)n2)cc1NC(=O)c1cnc2ccccn12 [Compound I-138],–,–,–,+ (induction fold of less than or equal to 2-fold),–
"COc1ccn2c(C(=O)Nc3cc(-c4noc(CC(O)C(F)F)n4)ccc3C)cnc2c1 (single isomer, unassigned) [Compound I-76]",≤ 50 nM,50 to 500 nM,≤ 50 nM,–,–
Cc1ccc(-c2noc([C@H](C)O)n2)cc1NC(=O)c1cnc2ccccn12 [Compound I-271],–,–,–,+ (induction fold of less than or equal to 2-fold),–
Cc1ccc(-c2noc(CC(C)(C)O)n2)cc1NC(=O)c1cnc2ccccn12 [Compound I-336],50 to 500 nM,50 to 500 nM,50 to 500 nM,–,–
Cc1ccc(-c2noc([C@H]3C[C@@H]3F)n2)cc1NC(=O)c1cnc2cc(OC(F)(F)F)ccn12 [Compound I-87],50 to 500 nM,5000 to 30000 nM,50 to 500 nM,+ (induction fold of less than or equal to 2-fold),–
Cc1ccc(-c2noc([C@H]3C[C@@H]3F)n2)cc1NC(=O)c1cnc2ccc(F)cn12 [Compound I-288],≤ 50 nM,500 to 5000 nM,50 to 500 nM,–,CYP 3A4 induction mRNA: Mean fold at 10 μM (CYP3A4; donor two): ++++ (induction fold of greater than 10-fold)
COCCOCc1ccn2c(C(=O)Nc3cc(-c4noc([C@H]5C[C@@H]5F)n4)ccc3C)cnc2c1 [Compound I-84],≤ 50 nM,500 to 5000 nM,≤ 50 nM,+ (induction fold of less than or equal to 2-fold),–
COc1ccn2c(C(=O)Nc3cc(-c4noc(CC5CC(F)(F)C5)n4)ccc3C)cnc2c1 [Compound I-91],≤ 50 nM,50 to 500 nM,50 to 500 nM,–,–
Cc1ccc(-c2noc([C@H]3CCC(=O)N3)n2)cc1NC(=O)c1cnc2ccccn12 (racemic) [Compound I-327],–,–,–,+ (induction fold of less than or equal to 2-fold),CYP 3A4 induction mRNA: Mean fold at 10 μM (CYP3A4; donor five): + (induction fold of less than or equal to 2-fold); CYP 3A4 induction mRNA: Mean fold at 10 μM (CYP3A4; donor three): + (induction fold of less than or equal to 2-fold)
Cc1ccc(-c2noc([C@H]3C[C@@H]3F)n2)cc1NC(=O)c1cnn2ccccc12 [Compound I-109],≤ 50 nM,500 to 5000 nM,50 to 500 nM,–,–
COc1ccn2c(C(=O)Nc3cc(-c4noc(C[C@H](C)O)n4)ccc3C)cnc2c1 [Compound I-94],≤ 50 nM,50 to 500 nM,≤ 50 nM,–,–
